From BindingDB's records for doi:10.1021/jm00001a017 (Bristol-Myers Squibb Pharmaceutical Research Institute, 1995)

biological target: Voltage-dependent L-type calcium channel (Cavia porcellus); experiment: Displacement of [3H]nitrendipine from dihydropyridine receptor of guinea pig myocardial membranes

SMILES | Kd
CSC1=NC2=C(C(=O)OC2)C(c2cccc([N+](=O)[O-])c2SC)N1 (stereo unspecified) [2-Methylsulfanyl-4-(2-methylsulfanyl-3-nitro-phenyl)-4,7-dihydro-1H-furo[3,4-d]pyrimidin-5-one] | 13700 nM
CSC1=NC(c2cccc([N+](=O)[O-])c2)C2=C(COC2=O)N1 (stereo unspecified) [2-Methylsulfanyl-4-(3-nitro-phenyl)-4,7-dihydro-1H-furo[3,4-d]pyrimidin-5-one] | 36900 nM
CSC1=NC(c2cc([N+](=O)[O-])ccc2SC)C2=C(COC2=O)N1 (stereo unspecified) [2-Methylsulfanyl-4-(2-methylsulfanyl-5-nitro-phenyl)-4,7-dihydro-1H-furo[3,4-d]pyrimidin-5-one] | > 50000 nM
CCCCSc1ccccc1C1N=C(SC)Nc2coc(O)c21 (stereo unspecified) [4-(2-Butylsulfanyl-phenyl)-2-methylsulfanyl-4,7-dihydro-1H-furo[3,4-d]pyrimidin-5-one] | > 50000 nM
COC(=O)C1C(C)=NC(SC)=NC1c1ccccc1SC (stereo unspecified) [6-Methyl-2-methylsulfanyl-4-(2-methylsulfanyl-phenyl)-1,4-dihydro-pyrimidine-5-carboxylic acid methyl ester] | 1520 nM
CSC1=NC(c2ccccc2SC)c2c(coc2O)N1 (stereo unspecified) [2-Methylsulfanyl-4-(2-methylsulfanyl-phenyl)-4,7-dihydro-1H-furo[3,4-d]pyrimidin-5-one] | 45200 nM
COC(=O)C1C(C)=NC(SC)=NC1c1cc([N+](=O)[O-])ccc1SC (stereo unspecified) [6-Methyl-2-methylsulfanyl-4-(2-methylsulfanyl-5-nitro-phenyl)-1,4-dihydro-pyrimidine-5-carboxylic acid methyl ester] | 2700 nM

These reach a lower Kd. Values come first.

Kd | SMILES
873 nM | CSC1=NC2C(=C(C)N1)C(=O)OCCCCCSc1ccc([N+](=O)[O-])cc12 (stereo unspecified) [4-Methyl-2-methylsulfanyl-15-nitro-3,8,9,10,11,16b-hexahydro-7H-6-oxa-12-thia-1,3-diaza-dibenzo[a,c]cyclododecen-5-one]
480 nM | COC(=O)C1C(C)=NC(SC)=NC1c1cccc([N+](=O)[O-])c1 (stereo unspecified) [6-Methyl-2-methylsulfanyl-4-(3-nitro-phenyl)-1,4-dihydro-pyrimidine-5-carboxylic acid methyl ester]
18 nM | CSC1=NC2c3ccccc3SCCCCCOC(=O)C2C(C)=N1 (stereo unspecified) [4-Methyl-2-methylsulfanyl-3,8,9,10,11,16b-hexahydro-7H-6-oxa-12-thia-1,3-diaza-dibenzo[a,c]cyclododecen-5-one]
5 nM | CSC1=NC(C)=C2C(=O)OCCCCCSc3c(cccc3[N+](=O)[O-])C2N1 (stereo unspecified) [4-Methyl-2-methylsulfanyl-13-nitro-3,8,9,10,11,16b-hexahydro-7H-6-oxa-12-thia-1,3-diaza-dibenzo[a,c]cyclododecen-5-one]
